In patent publication US11001583B2, “Dihydropyrrolopyridine inhibitors of ROR-gamma” (Vitae Pharmaceuticals, LLC, priority 2014, dated 2021):

Experiments:
[1] = molecular target: hERG (human ether-à-go-go-related gene) potassium ion channel (Homo sapiens (Human), UniProt Q12809); assay: hERG Assay (Assay 4); format: cell-based; settings: patch clamp, HEK 293 cells
Experimental: Compounds of the invention were tested in vitro against the hERG (human ether-à-go-go-related gene) potassium ion channel (a surrogate for IKr, the rapidly activating delayed rectifier cardiac potassium ion channel).
The buffer was HEPES-buffered physiological saline (HB-PS) solution composed of: 137 mM NaCl, 4.0 mM KCl, 1.8 mM CaCl2, 1 mM MgCl2, 10 mM HEPES, 10 mM glucose, pH adjusted to 7.4 with NaOH, and 0.3% DMSO. Chemicals used in solution preparation were purchased from Sigma-Aldrich (St. Louis, Mo.), unless otherwise noted, and were of ACS reagent grade purity or higher.
HEK (human embryonic kidney) 293 cells were stably transfected with hERG cDNA.
For the patch clamp experiment, onset and steady state inhibition of hERG potassium current was measured using a pulse pattern with fixed amplitudes (depolarization: +20 mV for 2 s; repolarization: −50 mV for 2 s) repeated at 10 s intervals from a holding potential of −80 mV. Peak tail current was measured during the 2 s step to −50 mV. A steady state was maintained for at least 30 seconds before applying compound or positive control (cisapride). Peak tail currents were measured until a new steady state was achieved.
Data acquisition and analyses were performed using the suite of pCLAMP® (ver. 8.2) programs (MDS Analytical Technologies, Sunnyvale, Calif.). Steady state was defined by the limiting constant rate of change with time (linear time dependence). The steady state before and after each compound application was used to calculate the percentage of current inhibited at each concentration.
Concentration-response data were fit to an equation of the following form: % Inhibition={1−1/[1+([Test]/IC50)N]}*100
where [Test] was the compound concentration, IC50 was the compound concentration at half-maximal inhibition, N was the Hill coefficient, and % Inhibition was the percentage of current inhibited at each compound concentration. Nonlinear least squares fits were solved with the Solver add-in for Excel 2003 (Microsoft, Wash.) and the IC50 was calculated.

[2] = tested on: IL-17A production; assay: Human Whole Blood Assay (Assay 3); format: cell-based; settings: IL-17A secretion, 50% blood/media
Experimental: Human Whole Blood Assay (Assay 3)
Compounds of the invention were tested in the human whole blood assay to measure their effects on IL-17A production as determined by cytokine secretion into 50% blood/media supernatant. Mixtures of sodium heparinized whole blood (isolated from healthy human donors) and the T cell activator CytoStim, in the presence or absence of compound, were plated in sterilized, tissue culture-treated 24-well plates. Specifically, the mixtures in each well were as follows: (1) 500 μL of whole blood, (2) 250 μL of compound diluted into RPMI-1640 media containing 10% HyClone™ FCS (Thermo Fisher Scientific, Waltham, Mass.), Gibco® Pen/Strep and Gibco® NEAA (Life Technologies, Grand Island, N.Y.), and (3) 250 μL, of CytoStim (Miltenyi Biotech, Germany) diluted to a final concentration of 10 μL/mL in complete cell culture medium.
Mixtures were incubated at 37° C./5% CO2 for 48 h, after which, 200 μL of clean supernatant (i.e., no red blood cells) from each well was transferred to a well in a 96-well plate. IL-17A cytokine expression was determined using 25 μL of the transferred supernatant diluted with 25 μL of Diluent 43 from the Human IL-17A V-PLEX™ kit (cat. #K151RFD-4, Meso Scale Discovery, Rockville, Md.). The assay was performed according to the manufacturer's instructions using included reagents. The IL-17A V-PLEX™ plates were read using the Meso Scale Discovery Imager (Model 1200). The levels of IL-17A were extrapolated from a standard curve using a four-parameter non-linear fitting model and expressed as pg/mL. These values were regressed against concentrations of the tested compounds to derive IC50 values using a four-parameter non-linear fitting model.

[3] = molecular target: recombinant RORγ Ligand Binding Domain (LBD) protein (Homo sapiens (Human), UniProt P51449); assay: Radio-Ligand RORγ Binding Assay (Assay 1); settings: competition with 25-hydroxy [26,27-3H]-cholesterol, SPA; read-out: RORγ Binding Ki Range (nM) (Assay 1)
recombinant RORγ Ligand Binding Domain (LBD) protein, sequence (P51449 269-508): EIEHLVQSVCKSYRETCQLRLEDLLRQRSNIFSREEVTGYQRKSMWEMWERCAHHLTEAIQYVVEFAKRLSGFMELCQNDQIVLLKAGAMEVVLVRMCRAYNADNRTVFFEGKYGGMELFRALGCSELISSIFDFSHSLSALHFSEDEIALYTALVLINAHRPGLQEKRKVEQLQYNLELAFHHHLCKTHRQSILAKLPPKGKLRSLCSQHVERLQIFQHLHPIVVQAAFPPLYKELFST
Experimental: Radio-Ligand RORγ Binding Assay (Assay 1)
Compounds of the present invention were tested for ability to bind to RORγ in a cell-free competition assay with commercially available radio-ligand (RL), 25-hydroxy [26,27-^3H]-cholesterol (PerkinElmer, Cat. #NET674250UC), for a ligand binding site on a recombinant RORγ Ligand Binding Domain (LBD) protein expressed as a 6×His-Glutathione-S-Transferase (GST) fusion. […] The plate was shaken at 700 rpm for 20 min and incubated for 10 min at rt, after which 40 μL of poly-Lys YSi SPA beads (PerkinElmer, Cat. #RPNQ0010) were added to achieve 50 μg of the beads per well. The plate was incubated on an orbital shaker for 20 min and then for 10 min without agitation at rt. SPA signal for tritium beta radiation was registered on PerkinElmer Microbeta plate reader. […] The percent inhibition vs. concentration data were fit into a four-parameter model, and IC50 values were calculated from the fit as the concentrations corresponding to the inflection points on the dose-response curves.

[4] = molecular target: full-length RORγt (Homo sapiens (Human), UniProt P51449); assay: RORγt 5×RORE Assay in Jurkat Cells (Assay 2); format: cell-based; settings: 5×RORE luciferase reporter, read-out: RORγt5X IC50 Range (nM) (Assay 2)
full-length RORγt, sequence (P51449 other isoform, or with tags, fused parts or gaps): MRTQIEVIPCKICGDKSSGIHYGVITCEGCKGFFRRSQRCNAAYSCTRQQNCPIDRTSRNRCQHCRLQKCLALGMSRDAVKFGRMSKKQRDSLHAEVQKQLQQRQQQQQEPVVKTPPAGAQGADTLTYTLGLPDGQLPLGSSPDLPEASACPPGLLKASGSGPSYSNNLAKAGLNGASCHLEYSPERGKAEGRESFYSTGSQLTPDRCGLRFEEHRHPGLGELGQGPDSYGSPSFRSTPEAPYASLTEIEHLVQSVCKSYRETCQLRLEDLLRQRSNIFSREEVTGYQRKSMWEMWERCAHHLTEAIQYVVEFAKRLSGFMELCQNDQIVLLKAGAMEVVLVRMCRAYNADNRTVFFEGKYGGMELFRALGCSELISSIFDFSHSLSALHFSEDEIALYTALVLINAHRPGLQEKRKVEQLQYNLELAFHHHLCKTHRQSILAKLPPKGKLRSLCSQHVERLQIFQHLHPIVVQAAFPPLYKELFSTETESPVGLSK
Experimental: RORγt 5×RORE Assay in Jurkat Cells (Assay 2)
Compounds of the present invention were tested for RORγ inverse agonist activity in a cell-based, transcriptional activity assay. […] (Promega, Cat. #N1021) using KpnI and HindIII restriction sites. […] Tested compounds were added to the cells in the same media (final concentration of DMSO was 0.1% (v/v)), and the plates were incubated at 37° C./5% CO2 for 16-18 hr. Luciferase activity in the conditioned supernatants was determined with NanoGlo® assay reagents (Promega, Cat. #N1130).

hERG (human ether-à-go-go-related gene) potassium ion channel, sequence (Q12809 whole entry): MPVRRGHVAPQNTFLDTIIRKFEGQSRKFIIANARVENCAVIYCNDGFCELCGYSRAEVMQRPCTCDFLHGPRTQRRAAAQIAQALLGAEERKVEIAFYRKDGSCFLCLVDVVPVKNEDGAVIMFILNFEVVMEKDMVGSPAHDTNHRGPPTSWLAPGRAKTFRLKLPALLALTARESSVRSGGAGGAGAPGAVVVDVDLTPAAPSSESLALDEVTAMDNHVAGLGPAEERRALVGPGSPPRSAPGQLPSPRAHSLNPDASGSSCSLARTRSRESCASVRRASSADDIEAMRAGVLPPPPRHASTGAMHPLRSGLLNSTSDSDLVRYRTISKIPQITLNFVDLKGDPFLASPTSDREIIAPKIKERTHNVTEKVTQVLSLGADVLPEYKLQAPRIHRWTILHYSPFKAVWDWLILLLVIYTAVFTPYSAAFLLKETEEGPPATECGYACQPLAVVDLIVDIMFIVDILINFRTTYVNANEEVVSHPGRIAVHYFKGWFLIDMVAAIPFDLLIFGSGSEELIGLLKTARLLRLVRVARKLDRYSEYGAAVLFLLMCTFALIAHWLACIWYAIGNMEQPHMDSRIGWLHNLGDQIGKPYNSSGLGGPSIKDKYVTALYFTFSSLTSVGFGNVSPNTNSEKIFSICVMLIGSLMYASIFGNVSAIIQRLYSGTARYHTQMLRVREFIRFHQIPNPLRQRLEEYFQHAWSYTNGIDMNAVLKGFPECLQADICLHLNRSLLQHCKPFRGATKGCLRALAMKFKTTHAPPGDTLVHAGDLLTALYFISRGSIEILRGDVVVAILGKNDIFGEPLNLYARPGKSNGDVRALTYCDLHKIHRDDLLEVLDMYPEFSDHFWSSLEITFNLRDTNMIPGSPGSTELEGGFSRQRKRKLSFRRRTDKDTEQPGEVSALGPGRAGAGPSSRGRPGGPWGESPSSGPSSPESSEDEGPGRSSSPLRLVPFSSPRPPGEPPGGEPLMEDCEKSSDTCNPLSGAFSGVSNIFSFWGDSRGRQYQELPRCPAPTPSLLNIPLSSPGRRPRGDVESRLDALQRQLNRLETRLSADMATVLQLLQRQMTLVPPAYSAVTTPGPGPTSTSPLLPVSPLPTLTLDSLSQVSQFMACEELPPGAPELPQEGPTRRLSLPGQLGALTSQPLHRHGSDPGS

Row | IC50 ([2]; CytoStim, 48 h) [nM] | SMILES | hERG Assay (Compound at 3 μM) % Inhibition (Assay 4) [1] [%] | also measured
1 | < 100 | CCS(=O)(=O)c1ccc([C@H](COC)NC(=O)c2cnc3c(c2)CN(C[C@H]2CC[C@H](C(F)(F)F)CC2)[C@H]3C(C)C)cc1 [Compound 15] | 50 | 
2 | 100 to 200 | CCS(=O)(=O)c1ccc([C@@H](COC(N)=O)NC(=O)c2cnc3c(c2)CN(C[C@H]2CC[C@H](C(F)(F)F)CC2)[C@H]3C(C)C)cc1 [Compound 12] | 38.8 | 

More lines, now with the values behind:

Row | SMILES | IC50 ([2]; CytoStim, 48 h) [nM] | hERG Assay (Compound at 3 μM) % Inhibition (Assay 4) [1] [%] | also measured
3 | CCS(=O)(=O)c1ccc(CNC(=O)c2cnc3c(c2)CN(C[C@H]2CC[C@H](C(F)(F)F)CC2)[C@H]3C(C)C)nc1 |  |  | hERG Assay (Compound at 3 μM) % Inhibition (Assay 4) ([1]; comparator compounds): 45.4%; IC50 ([2]; comparator compounds): > 200 nM
4 | CC[C@H]1c2ncc(C(=O)N[C@@H](COC)c3ccc(S(=O)(=O)CC)cc3)cc2CN1C[C@@H]1CC[C@@H](C(F)(F)F)OC1 (single isomer, unassigned) [Compound 4] | < 100 |  | 
5 | CCOC[C@H](NC(=O)c1cnc2c(c1)CN(C[C@H]1CC[C@H](C(F)(F)F)CC1)[C@H]2C(C)C)c1ccc(S(=O)(=O)CC)cc1 [Compound 7] |  |  | Ki [3]: < 100 nM; IC50 [4]: 100 to 1000 nM
6 | CC[C@H]1c2ncc(C(=O)N[C@@H](COC)c3ccc(S(=O)(=O)CC)cc3)cc2CN1C[C@H]1CC[C@H](C(F)(F)F)CC1 [Compound 1, (S)-7-ethyl-N—((R)-1-(4-(ethylsulfonyl)phenyl)-2-methoxyethyl)-6-((trans-4-(trifluoromethyl)cyclohexyl)methyl)-6,7-dihydro-5H-pyrrolo[3,4-b]pyridine-3-carboxamide] |  | 24.3 | 
7 | CC[C@H]1c2ncc(C(=O)N[C@@H](COC(N)=O)c3ccc(S(=O)(=O)CC)cc3)cc2CN1C[C@H]1CC[C@H](C(F)(F)F)CC1 [Compound 2, (R)-2-((S)-7-ethyl-6-((trans-4-(trifluoromethyl)cyclohexyl)methyl)-6,7-dihydro-5H-pyrrolo[3,4-b]pyridine-3-carboxamido)-2-(4-(ethylsulfonyl)phenyl)ethyl Carbamate] |  | 38.8 | 
8 | CC[C@H]1c2ncc(C(=O)N[C@@H](COC)c3ccc(S(=O)(=O)CC)cc3)cc2CN1C[C@H]1CC[C@H](C(F)(F)F)OC1 (single isomer, unassigned) [Compound 3] | < 100 | 24.3 | 
9 | CCS(=O)(=O)c1ccc(CNC(=O)c2cnc3c(c2)CN(C[C@H]2CC[C@H](C(F)(F)F)CC2)[C@H]3C(C)C)cc1 |  |  | hERG Assay (Compound at 3 μM) % Inhibition (Assay 4) ([1]; comparator compounds): 57.0%
